Columns and labels:
[1] = biological target: T1, purified recombinant human GAC (GLS1) (Homo sapiens, UniProt O94925); assay: GLS1 Enzymatic Activity Assay (dual-coupled enzymatic assay); assay type: biochemical
T1 sequence (O94925 55-598 isoform O94925-3 limits assumed): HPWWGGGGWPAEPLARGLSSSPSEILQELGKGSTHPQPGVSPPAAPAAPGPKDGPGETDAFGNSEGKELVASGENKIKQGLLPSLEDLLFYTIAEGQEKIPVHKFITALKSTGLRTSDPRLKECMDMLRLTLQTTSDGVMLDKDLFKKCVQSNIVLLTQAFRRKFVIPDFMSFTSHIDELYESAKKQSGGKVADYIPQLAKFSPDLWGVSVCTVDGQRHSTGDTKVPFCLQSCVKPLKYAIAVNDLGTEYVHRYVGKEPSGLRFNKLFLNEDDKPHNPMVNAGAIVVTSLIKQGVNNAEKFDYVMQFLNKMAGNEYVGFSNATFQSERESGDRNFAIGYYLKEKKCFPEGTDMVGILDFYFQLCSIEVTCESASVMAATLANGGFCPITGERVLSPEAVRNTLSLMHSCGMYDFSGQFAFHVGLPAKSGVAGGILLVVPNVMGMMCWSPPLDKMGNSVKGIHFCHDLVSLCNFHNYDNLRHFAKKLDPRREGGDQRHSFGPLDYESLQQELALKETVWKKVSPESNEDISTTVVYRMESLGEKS
Outline: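 GAC activity measured by coupling glutamate to glutamate oxidase and HRP, generating resorufin from Amplex UltraRed. Enzyme (2 nM) preincubated with 50 mM potassium phosphate 10 min at room temperature, then inhibitor 10 min; 1 mM glutamine substrate, 1% DMSO. Fluorescence 530/590 nm, kinetic or 20-min endpoint; IC50 from four-parameter logistic fit.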

A549 cells = assay: Proliferation Assay (A549 cell viability, Cell Titer Fluor); assay type: cell-based; conditions: Homo sapiens, 72 hours
Outline: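 Compound exposure lasted 72 h (final DMSO 0.5% v/v) on A549 cells plated at 1000 cells/well one day earlier. Cell Titer Fluor added, 30 min at 37 °C, fluorescence read; EC50 derived by four-parameter logistic curve fitting.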

SMILES	IC50 [1]	EC50 (A549 cells)
Cc1ccc(CNC(=O)c2cn(CCCCc3cc4c(CCc5ccccc5)c(C5CC5)[nH]c4nn3)nn2)cn1 [Example 100, 1-{4-[6-cyclopropyl-5-(2-phenylethyl)-7H-pyrrolo[2,3-c]pyridazin-3-yl]butyl}-N-[(6-methylpyridin-3-yl)methyl]-1H-1,2,3-triazole-4-carboxamide]	< 100 nM	100 to 500 nM
O=C(NCc1ccccn1)c1cn(CCCCc2cc3c(Cc4ccc5ccccc5c4)c(C4CC4)[nH]c3nn2)nn1 [Example 101, 1-{4-[6-cyclopropyl-5-(naphthalen-2-ylmethyl)-7H-pyrrolo[2,3-c]pyridazin-3-yl]butyl}-N-(pyridin-2-ylmethyl)-1H-1,2,3-triazole-4-carboxamide]	< 100 nM	100 to 500 nM
N#Cc1cccc(Cc2c(C3CC3)[nH]c3nnc(CCCCn4cc(C(=O)NCc5ccccn5)nn4)cc23)c1 [Example 103, 1-(4-{5-[(3-cyanophenyl)methyl]-6-cyclopropyl-7H-pyrrolo[2,3-c]pyridazin-3-yl}butyl)-N-(pyridin-2-ylmethyl)-1H-1,2,3-triazole-4-carboxamide]	< 100 nM	500 to 5000 nM
O=C(NCc1cccc(OC(F)(F)F)c1)c1cn(CCCCc2cc3cc(C4CNC4)[nH]c3nn2)nn1 [Example 107, 1-{4-[6-(azetidin-3-yl)-7H-pyrrolo[2,3-c]pyridazin-3-yl]butyl}-N-{[3-(trifluoromethoxy)phenyl]methyl}-1H-1,2,3-triazole-4-carboxamide]	100 to 500 nM	500 to 5000 nM
O=C(NCc1ccccn1)c1cn(CCCCc2cc3c(-c4ccccc4)c(C4CC4)[nH]c3nn2)nn1 [Example 108, 1-(4-{6-cyclopropyl-5-phenyl-7H-pyrrolo[2,3-c]pyridazin-3-yl}butyl)-N-(pyridin-2-ylmethyl)-1H-1,2,3-triazole-4-carboxamide]	< 100 nM	100 to 500 nM
Cc1c(C2CC2)[nH]c2nnc(CCCCn3cc(C(=O)NCc4ccccn4)nn3)cc12 [Example 109, 1-(4-(6-cyclopropyl-5-methyl-7H-pyrrolo[2,3-c]pyridazin-3-yl)butyl)-N-(pyridin-2-ylmethyl)-1H-1,2,3-triazole-4-carboxamide]	100 to 500 nM	500 to 5000 nM
CC(C)Cc1c(C2CC2)[nH]c2nnc(CCCCn3cc(C(=O)NCc4ccccn4)nn3)cc12 [Example 110, 1-{4-[6-cyclopropyl-5-(2-methylpropyl)-7H-pyrrolo[2,3-c]pyridazin-3-yl]butyl}-N-(pyridin-2-ylmethyl)-1H-1,2,3-triazole-4-carboxamide]	< 100 nM	100 to 500 nM
O=C(NCc1ccccn1)c1cn(CCCCc2cc3c(Cc4ccc(Cl)nc4)c(C4CC4)[nH]c3nn2)nn1 [Example 114, 1-(4-(5-((6-chloropyridin-3-yl)methyl)-6-cyclopropyl-7H-pyrrolo[2,3-c]pyridazin-3-yl)butyl)-N-(pyridin-2-ylmethyl)-1H-1,2,3-triazole-4-carboxamide 2,2,2-trifluoroacetate]	< 100 nM	500 to 5000 nM
CCOC(=O)c1nnc(CCCCc2cc3cc(C4CC4)[nH]c3nn2)s1 [Example 115, ethyl 5-(4-{6-cyclopropyl-7H-pyrrolo[2,3-c]pyridazin-3-yl}butyl)-1,3,4-thiadiazole-2-carboxylate]	100 to 500 nM	500 to 5000 nM
O=C(NCc1ccccn1)c1cn(CCCCc2cc3c(-c4cccc(Cl)c4)c(C4CC4)[nH]c3nn2)nn1 [Example 116, 1-{4-[5-(3-chlorophenyl)-6-cyclopropyl-7H-pyrrolo[2,3-c]pyridazin-3-yl]butyl}-N-(pyridin-2-ylmethyl)-1H-1,2,3-triazole-4-carboxamide]	< 100 nM	500 to 5000 nM
O=C(NCc1ccccn1)c1cn(CCCCc2cc3c(-c4ccccc4F)c(C4CC4)[nH]c3nn2)nn1 [Example 120, 1-{4-[6-cyclopropyl-5-(2-fluorophenyl)-7H-pyrrolo[2,3-c]pyridazin-3-yl]butyl}-N-(pyridin-2-ylmethyl)-1H-1,2,3-triazole-4-carboxamide]	< 100 nM	100 to 500 nM
Cc1ccc(CNC(=O)c2cn(CCCCc3cc4c(-c5ccccc5F)c(C5CC5)[nH]c4nn3)nn2)cn1 [Example 122, 1-{4-[6-cyclopropyl-5-(2-fluorophenyl)-7H-pyrrolo[2,3-c]pyridazin-3-yl]butyl}-N-[(6-methylpyridin-3-yl)methyl]-1H-1,2,3-triazole-4-carboxamide]	< 100 nM	< 100 nM

More lines, now with the values ahead:

IC50 [1]	EC50 (A549 cells)	SMILES
< 100 nM	500 to 5000 nM	O=C(NCc1ccccn1)c1cn(CCCCc2cc3c(Cc4ccccc4)c(C4CC4)[nH]c3nn2)nn1 [Example 102, 1-(4-{5-benzyl-6-cyclopropyl-7H-pyrrolo[2,3-c]pyridazin-3-yl}butyl)-N-(pyridin-2-ylmethyl)-1H-1,2,3-triazole-4-carboxamide]
< 100 nM	500 to 5000 nM	O=C(NCc1ccccn1)c1cn(CCCCc2cc3c(Cc4ccccc4F)c(C4CC4)[nH]c3nn2)nn1 [Example 104, 1-(4-{6-cyclopropyl-5-[(2-fluorophenyl)methyl]-7H-pyrrolo[2,3-c]pyridazin-3-yl}butyl)-N-(pyridin-2-ylmethyl)-1H-1,2,3-triazole-4-carboxamide]
< 100 nM	< 100 nM	CC(C)(C)OC(=O)N1CC(c2cc3cc(CCCCn4cc(C(=O)NCc5cccc(OC(F)(F)F)c5)nn4)nnc3[nH]2)C1 [Example 105, tert-butyl 3-(3-{4-[4-({[3-(trifluoromethoxy)phenyl]methyl}carbamoyl)-1H-1,2,3-triazol-1-yl]butyl}-7H-pyrrolo[2,3-c]pyridazin-6-yl)azetidine-1-carboxylate]
< 100 nM	100 to 500 nM	O=C(NCc1ccccn1)c1cn(CCCCc2cc3c(Cc4ccc(Cl)cc4)c(C4CC4)[nH]c3nn2)nn1 [Example 106, 1-(4-{5-[(4-chlorophenyl)methyl]-6-cyclopropyl-7H-pyrrolo[2,3-c]pyridazin-3-yl}butyl)-N-(pyridin-2-ylmethyl)-1H-1,2,3-triazole-4-carboxamide]
< 100 nM	< 100 nM	CC(C)(C)OC(=O)N1CC(c2cc3cc(CCCCn4cc(C(=O)NCc5cc(OC(F)(F)F)ccc5F)nn4)nnc3[nH]2)C1 [Example 111, tert-butyl 3-(3-(4-(4-((2-fluoro-5-(trifluoromethoxy)benzyl)carbamoyl)-1H-1,2,3-triazol-1-yl)butyl)-7H-pyrrolo[2,3-c]pyridazin-6-yl)azetidine-1-carboxylate]
< 100 nM	500 to 5000 nM	Cc1ccc(CNC(=O)c2cn(CCCCc3cc4c(C#N)c(C5CC5)[nH]c4nn3)nn2)cn1 [Example 112, 1-(4-{5-cyano-6-cyclopropyl-7H-pyrrolo[2,3-c]pyridazin-3-yl}butyl)-N-[(6-methylpyridin-3-yl)methyl]-1H-1,2,3-triazole-4-carboxamide]
< 100 nM	500 to 5000 nM	O=C(NCc1ccccn1)c1cn(CCCCc2cc3c(-c4ccncc4)c(C4CC4)[nH]c3nn2)nn1 [Example 113, 1-{4-[6-cyclopropyl-5-(pyridin-4-yl)-7H-pyrrolo[2,3-c]pyridazin-3-yl]butyl}-N-(pyridin-2-ylmethyl)-1H-1,2,3-triazole-4-carboxamide]
< 100 nM	100 to 500 nM	O=C(NCc1ccccn1)c1cn(CCCCc2cc3c(-c4ccc(Cl)cc4)c(C4CC4)[nH]c3nn2)nn1 [Example 117, 1-{4-[5-(4-chlorophenyl)-6-cyclopropyl-7H-pyrrolo[2,3-c]pyridazin-3-yl]butyl}-N-(pyridin-2-ylmethyl)-1H-1,2,3-triazole-4-carboxamide]
< 100 nM	500 to 5000 nM	O=C(NCc1cc(OC(F)(F)F)ccc1F)c1cn(CCCCc2cc3cc(C4CNC4)[nH]c3nn2)nn1 [Example 118, 1-{4-[6-(azetidin-3-yl)-7H-pyrrolo[2,3-c]pyridazin-3-yl]butyl}-N-{[2-fluoro-5-(trifluoromethoxy)phenyl]methyl}-1H-1,2,3-triazole-4-carboxamide]
< 100 nM	500 to 5000 nM	CC(=O)N1CC(c2cc3cc(CCCCn4cc(C(=O)NCc5cc(OC(F)(F)F)ccc5F)nn4)nnc3[nH]2)C1 [Example 119, 1-{4-[6-(1-acetylazetidin-3-yl)-7H-pyrrolo[2,3-c]pyridazin-3-yl]butyl}-N-{[2-fluoro-5-(trifluoromethoxy)phenyl]methyl}-1H-1,2,3-triazole-4-carboxamide]
< 100 nM	100 to 500 nM	COc1cccc(-c2c(C3CC3)[nH]c3nnc(CCCCn4cc(C(=O)NCc5ccccn5)nn4)cc23)c1 [Example 121, 1-{4-[6-cyclopropyl-5-(3-methoxyphenyl)-7H-pyrrolo[2,3-c]pyridazin-3-yl]butyl)-N-(pyridin-2-ylmethyl)-1H-1,2,3-triazole-4-carboxamide]

Reference: patent publication US20160002248A1, “GLS1 INHIBITORS FOR TREATING DISEASE” (Board of Regents, The University of Texas System, priority 2014, published 2016)
